Experimental data from patent US8809354B2, “3-amino-2-(4-nitrophenyl)-4-(3H)-quinazolinone or derivatives thereof for treating or preventing antiviral infections” (priority 2011, dated 2014).

How the values were obtained:
[1] = system: HCV sub-genomic replicon in FCA 4 cells; format: cell-based, hepatitis C virus
Source text: FCA-4 sub genomic replicon was bicistronic construct composed of the HCV IRES (nucleotides 1 to 377 of the 5′NCR); the neomycin phosphotransferase (neo) gene; the encephalomyocarditis IRES, which mediates the translation of HCV nonstructural proteins NS3 through NS5; and the 3′NCR as shown in FIG. 2. […] FCA-4 sub-genomic replicon consists of single adaptive mutation and a deletion of a serine residue at position 1176 (Guo et al, 2001).
The bicistronic RNA molecule contains the HCV IRES and a few core-coding sequences, which are followed by neomycin phosphotransferase gene (Neor). These sequences are followed by the encephalomyocarditis virus IRES placed in front of HCV sequences encoding nonstructural protein NS3 to NS5B, terminating at the HCV 3NCR.
To determine the antiviral effect against HCV, FCA 4 cells were seeded in six well plates. After 24 h, media containing 20 μM of test compound was added to the plates. Cells were incubated at 37° C. in CO2 incubator for additional 48 h. At the end of the incubation, cells were harvested, RNA was extracted and cDNA were generated by oligo dT priming. cDNA was amplified by PCR using primers specific to the 5′UTR and NS5B gene of HCV. Amplification of GAPDH mRNA served as an internal control. […]

[2] = system: HCV 3a genotype in MDBK cells; test: Synergy with interferon-α against HCV in MDBK cells (real time Quantitative RT-PCR); format: cell-based, hepatitis C virus; settings: with interferon-α 5 IU/well, 6 hrs pre-incubation, HCV 3a 2×10^4 copies per well, 18 hrs
Experimental: Surprising synergism was recorded when Compound 1 was combined with Interferon alpha. […] MDBK cells were incubated for 6 hrs with compounds and interferon alone, or combination of compound and interferon in a 96-well plat. After 6 hrs cells were infected with 2×10^4 copies of HCV 3a genotype per well and incubated for additional 18 hrs. At the end of incubation period, total RNA was extracted by Gentra kit, and the levels of HCV RNA remaining were determined, by real time Quantitative RT-PCR assay and are shown as percentage of HCV RNA survival in cells. Results are represented as the average and standard error for three independent experiments.

HCV = settings: Ribavirin alone, cited from earlier work
HCV protease = HCV protease (Hepatitis C virus genotype 1a, UniProt P26664); settings: SDS-PAGE and autoradiography assay; cited from earlier work
Chain of HCV protease (P26664 1027-1657): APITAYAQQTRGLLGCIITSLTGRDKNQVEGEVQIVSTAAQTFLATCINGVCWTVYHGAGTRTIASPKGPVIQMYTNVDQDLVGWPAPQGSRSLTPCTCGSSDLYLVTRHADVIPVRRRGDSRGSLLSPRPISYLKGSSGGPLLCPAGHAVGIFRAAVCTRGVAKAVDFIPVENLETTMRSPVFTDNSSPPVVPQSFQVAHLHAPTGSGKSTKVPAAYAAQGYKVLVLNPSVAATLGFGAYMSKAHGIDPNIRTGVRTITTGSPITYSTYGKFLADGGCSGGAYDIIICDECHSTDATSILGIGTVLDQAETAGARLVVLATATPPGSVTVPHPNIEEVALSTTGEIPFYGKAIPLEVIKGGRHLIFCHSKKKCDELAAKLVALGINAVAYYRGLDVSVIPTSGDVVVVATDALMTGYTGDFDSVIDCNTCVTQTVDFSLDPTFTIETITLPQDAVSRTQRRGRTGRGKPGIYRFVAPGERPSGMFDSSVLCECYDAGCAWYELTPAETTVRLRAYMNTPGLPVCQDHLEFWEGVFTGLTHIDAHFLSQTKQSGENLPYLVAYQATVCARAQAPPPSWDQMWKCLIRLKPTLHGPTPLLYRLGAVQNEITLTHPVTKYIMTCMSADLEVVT

Q: Which results are given for Nn1c(-c2ccc([N+](=O)[O-])cc2)nc2ccccc2c1=O [Compound 1, 3-amino-2-(4-nitrophenyl)-4-(3H)-quinazolinone]?
A: Cytotoxicity in relation to antiviral suppression [1]: independent of cytotoxicity; HCV RNA expression ([1]; 20 μM, 48 h, PCR with primers for 5′UTR and NS5B): inhibited HCV RNA expression significantly; Antiviral activity in combination with interferon-α (HCV RNA survival) [2]: synergistic effect

Q: With NC(=O)c1ncn([C@@H]2O[C@H](CO)[C@@H](O)[C@H]2O)n1 [Ribavirin, 1-β-D-ribofuranosyl-1-1,2,4-triazole-3-carboxamide] as the compound, how does the “Serum levels of HCV-RNA” value (HCV; patients) read?
A: Its value is “does not lower”.

Q: And the “Patients in whom serum amino transferase levels are reduced to normal” value (HCV)?
A: The value was 40%.

Q: For CCCC(=O)c1cc2c(c(O)c1C)C(=O)C(=O)c1c(O)cccc1-2 [Sch 68631], which “Activity against HCV protease” value (HCV protease) is on record?
A: Its value is “micromolar activity”.
